Patent US20080214517A1, “Modulation of the Expression of Estrogen Receptors for the Prevention or Treatment of Heart Disease” (priority 2003, published 2008)

B1: PDGF-BB: platelet-derived growth factor-BB, agonist used to stimulate PSMC migration and MAPK phosphorylation (protein, UniProt P01127 82-190, looked up)
Platelet-derived growth …: SLGSLTIAEPAMIAECKTRTEVFEISRRLIDRTNANFLVWPPCVEVQRCSGCCNNRNVQCRPTQVQLRPVQVRKIEIVRKKPIFKKATVTLEDHLACKCETVAAARPVT

Experiments:
[1] = local delivery following coronary angioplasty in pigs; cited from earlier work
[2] = system: p42/44 MAPK phosphorylation; experiment: Western blot of p42/44 MAPK phosphorylation in PSMC; format: cell-based, porcine; conditions: PDGF-BB stimulation 5 minutes; 17βE 10^−8 mol/L 30-minute pretreatment
Method: (§1) FIG. 4: Contribution of ERα and ERβ on p42/44 and p38 MAPK activation in PSMC. PSMC were seeded at 1×10^6 cells/100-mm culture plate and grown to confluence. Cells were treated either with antisense or scrambled oligomers as described in the methods. Cells were then treated with or without 17βE (10^−8 mol/L) for 30 minutes and stimulated 5 minutes for p42/44 MAPK (A) or 30 minutes for p38 MAPK (B) with PDGF-BB. Proteins were detected by Western blot analyses. Image densitometry results are given as relative expression (%) as compared to control PBS-treated cells.
(§2) The efficiency and specificity of our antisense oligomers to prevent the expression of targeted proteins were evaluated by Western blot analyses. Culture medium of confluent PAEC and PSMC (100-mm tissue culture plate) was removed, the cells were rinsed with Dulbecco's modified eagle medium (DMEM; Life Technologies Inc., Carlsbad, Calif.) and trypsinized (trypsine-EDTA; Life Technologies). Cells were resuspended in DMEM containing 5% of fetal bovine serum (FBS) (Hyclone Laboratories, Logan, Utah) and antibiotics (penicillin and streptomycin, Sigma, St-Louis, Mo.), and a cell count was obtained with a Coulter counter Z1 (Coulter Electronics, Luton, UK). […] Plates were incubated at 4° C. for 30 minutes and scraped, and the protein concentration was determined with a Bio-Rad protein assay kit (Bio-Rad, Hercules, Calif.). […]

[3] = system: porcine aortic endothelial cells (PAEC); experiment: Chemotactic assay (modified Boyden chamber), PAEC migration; format: cell-based; conditions: 17βE 10^−8 mol/L, 5 hours, compared to cells treated with FBS 1%
Method: FIG. 6: Contribution of ERα and ERβ on PAEC migration. PAEC were trypsinized and resuspended in DMEM; 2.5×10^5 cells/well of a six-well tissue culture plate were stimulated with or without antisense oligomers as described in the methods. 2.5×10^4 cells were added in the higher compartment of the modified Boyden chamber apparatus with or without antisense oligomers, and the lower chamber was filled with DMEM 1% FBS, and antibiotics with or without 17βE (10^−8 mol/L). Five hours postincubation at 37° C., the migrated cells were fixed, stained and counted by using a microscope adapted to a digitized video camera. The values are represented as relative mean of migrating cells/mm^2 from 6 chambers for each treatment. *, P<0.05 as compared to unstimulated cells; t, P<0.05 as compared to cells treated with 17βE (10^−8 mol/L).
(§3) Cell migration was evaluated using a modified Boyden 48-well microchamber kit (NeuroProbe, Cabin John, Md.). Near confluent PAEC and PSMC were rinsed with DMEM and trypsinized. Cells were resuspended in DMEM, 5% FBS, and antibiotics, and a cell count was obtained. […] The filter was then mounted on a glass slide, and migrated cells were counted using a microscope adapted to a video camera to obtain a computer-digitized image. […]

p38 MAPK phosphorylation [4] = experiment: Western blot of p38 MAPK phosphorylation in PAEC; format: cell-based, porcine; conditions: 17βE, 30 minutes stimulation; vs PBS-treated PAEC
Method: (§4) FIG. 7: Contribution of ERα and ERβ on p42144 and p38 MAPK activation in PAEC. PAEC were seeded at 1×10^6 cells/100-mm culture plate and grown to confluence. Cells were treated either with antisense or scrambled oligomers as described in the methods. Cells were then treated with or without 17βE (10^−8 mol/L) for 5 minutes for p42/44 MAPK activation (A) or 30 minutes for p38 MAPK stimulation (B). Proteins were detected by Western blot analyses. Image densitometry results are given as relative expression (%) as compared to control PBS-treated cells.
as §2

[5] = system: porcine smooth muscle cells (PSMC); experiment: Chemotactic assay (modified Boyden chamber), PSMC migration; format: cell-based; conditions: PDGF-BB 10 ng/mL
Method: FIG. 3: Contribution of ERα and ERβ on PSMC migration. PSMC were trypsinized and resuspended in DMEM; 2.5×10^5 cells/well of a six-well tissue culture plate were stimulated with or without antisense oligomers as described in the methods. 2.5×10^4 cells were added in the higher compartment of the modified Boyden chamber apparatus with or without antisense oligomers, and the lower chamber was filled with DMEM 1% FBS, and antibiotics with or without PDGF-BB (10 ng/ml). Five hours postincubation at 37° C., the migrated cells were fixed, stained and counted by using a microscope adapted to a digitized video camera. The values are represented as relative mean of migrating cells from 6 chambers for each treatment. *, P<0.05 as compared unstimulated cells; †, P<0.05 as compared to cells treated with PDGF-BB; ‡, P<0.05 as compared to cells treated with 17βE (10^−8 mol/L).
as §3

[6] = system: p42/44 MAPK phosphorylation; experiment: Western blot of p42/44 MAPK phosphorylation in PAEC; format: cell-based, porcine; conditions: 17βE 10^−8 mol/L, 5 minutes; vs PBS-treated PAEC
Method: as §4, §2

p38 MAPK phosphorylation [7] = experiment: Western blot of p38 MAPK phosphorylation in PSMC; format: cell-based, porcine; conditions: PDGF-BB stimulation 30 minutes; 17βE 10^−8 mol/L 30-minute pretreatment
Method: as §1, §2

[8] = system: porcine aortic endothelial cells (PAEC); experiment: Mitogenic assay, PAEC proliferation; format: cell-based; conditions: 17βE 10^−8 mol/L, compared to cells treated with FBS 1%; 3 days
Method: FIG. 5: Contribution of ERα and ERβ on PAEC proliferation. PAEC were seeded at 1×10^4 cells/well and stimulated with or without antisense oligomers as described in the methods. Cells were then stimulated with or without 17βE (10^−8 mol/L) and a cell count achieved 72 hours post-treatment. The values are means of cell counts obtained from 6 wells for each treatment. *, P<0.05 as compared to day 0; †, P<0.05 as compared to control (1% FBS); ‡, P<0.05 as compared to cells treated with 17βE (10^−8 mol/L).
(§5) Confluent PAEC and PSMC were rinsed with DMEM and trypsinized. Cells were resuspended in 10 mL of DMEM, 5% FBS, and antibiotics, and a cell count was obtained by using a Coulter counter Z1. PAEC and PSMC were initially seeded at 1×10^4 cells/well of 24-well tissue culture plates stimulated for 24 hours in DMEM, 5% FBS, and antibiotics with or without antisense oligomers (10^−6 mol/L), and starved for 48 hours in DMEM, 0.1% FBS, and antibiotics with or without antisense oligomers (10^−6 mol/L daily) for Go synchronization. The cells were stimulated for 72 hours in DMEM, 1% FBS, antibiotics with or without antisense oligomers (10^−6 mol/L daily) and with or without of 17βE (10^−8 mol/L). After trypsinization, cell number was determined by using a Coulter counter Z1.

[9] = system: porcine smooth muscle cells (PSMC); experiment: Mitogenic assay, PSMC proliferation; format: cell-based; conditions: 17βE (10^−8 mol/L); 72 hours
Method: FIG. 2: Contribution of ERα and ERβ on PSMC proliferation. PSMC were seeded at 1×10^4 cells/well and stimulated with or without antisense oligomers as described in the methods. Cells were then stimulated with or without 17βE (10^−8 mol/L) and a cell count achieved 72 hours post-treatment. The values are means of cell counts obtained from 6 wells for each treatment. *, P<0.05 as compared to day 0; t, P<0.05 as compared to control (1% FBS); *, P<0.05 as compared to cells treated with 17βE ([…]).
as §5

Molecule | endothelial NO synthase (eNOS) expression (in words) [1] | neointimal formation (in words) [1] | reendothelialization process (in words) [1] | p42/44 MAPK phosphorylation in PSMC (in words) [2] | promotion of PAEC migration [3] [%] | increase of p38 MAPK phosphorylation in PAEC (p38 MAPK phosphorylation [4]) [%] | inhibition of the chemotactic effect of PDGF-BB on PSMC (in words) ([5]; 17βE 10^−8 mol/L) | increase of p42/44 MAPK phosphorylation in PAEC [6] [%] | p38 MAPK phosphorylation in PSMC (in words) (p38 MAPK phosphorylation [7]) | enhancement of PAEC proliferation [8] [%] | prevention of PSMC proliferation mediated by FBS 1% [9] [%] | increase of basal migration of PSMC ([5]; 5 hours, compared to cells treated with FBS 1%) [%]
C[C@]12CC[C@@H]3c4ccc(O)cc4CC[C@H]3[C@@H]1CC[C@@H]2O [17βE, 17-beta-estradiol] | improving | reducing | improving | reversed | 363 | 254 | inhibited completely | 317 | reversed | 123 | 95 | 
B1 |  |  |  | increased |  |  |  |  | increased |  |  | 141
